Consider one substance from patent US8414923B2, “Immobilization of bioactive molecules within a polymeric substrate” (priority 2007, dated 2013).

Several values for one entry are separate records, joined by “and”; a condition that tells them apart may be missing. Identical values can stand only once.

One series has as its system BALB/c mice. Kind of series: Glycemia after oral insulin solution (not seized in polymer) in BALB/c mice. Type of series: in vivo. To be noted: for Glycemia: oral insulin solution 4 IU/kg, group averages (4 groups of 5 mice). As to the method:
Excipients: Zinc Chloride, glycerol, metacresol, Sodium hydroxide, Chloridic acid, and water suitable for injections. • The irradiation conditions ensuring the best quality of the final product has been described. • Its release or liberation under laboratory conditions and in laboratory animals has been studied. • Bioavailability in laboratory animals, has been studied. • Laboratory experimental pharmacological steps are included. The determination of glycemia in blood is performed employing the following apparatus:
Measuring type device: Accu-Chek Active
The measured values listed in the table are shown averaged in FIG. 1.
GLYCEMIA as a function of time, averaged in four groups of BALB/c mice (five mice in each group), to which oral insulin solution (4 IU/kg) was administered (insulin without been seized into polymer).

For series [1] the following is noted: cited from earlier work.
The conditions of series [2]: patients under insulin treatment; cited from earlier work.
Where [3] appears, read: average action profile after subcutaneous injection.

What is called t½ is the time needed for the level to fall by half in the phase considered. Biosynthetic human insulin: in the series with BALB/c mice (30 to 75 minutes after oral administration of insulin solution), the “Change of glycemia in mice” value is reported as “slight diminution of glycemia”. For the same substance, the Glycemia is 100 mg/dL and 102 mg/dL and 105 mg/dL in the series on BALB/c mice (time 0 min); 98 mg/dL and 97 mg/dL and 96 mg/dL in the series with BALB/c mice (time 15 min); 101 mg/dL and 102 mg/dL and 103 mg/dL and 105 mg/dL with BALB/c mice (time 30 min); 90 mg/dL and 93 mg/dL and 98 mg/dL and 96 mg/dL with BALB/c mice (time 60 min); 93 mg/dL and 95 mg/dL and 90 mg/dL and 94 mg/dL with BALB/c mice (time 90 min); 104 mg/dL and 102 mg/dL and 105 mg/dL and 100 mg/dL in the series on BALB/c mice (time 180 min). Besides, in series [1] (setting [3]), the “Action profile: Duration” value was 7 to 8 h. Further, in series [1] (setting [3]), the “Action profile: Initial” value was “within the first half hour”. The “Bond to plasmatic proteins” value in series [1] (except circulating insulin antibodies) is on record as “No significative bond to plasmatic proteins”. Moreover, in series [1] (in bloodstream), the “Average life (t½) of insulin in the bloodstream” value is reported as “only of a few minutes”. Also, the t½ in series [1] (injected (subcutaneous) insulin, clinical studies, determined by absorption) was 2 to 5 h. Moreover, in series [2], the “Frequency of changes in the levels of glucose in the blood” value is given as < 1/1000.
